Assay results taken from PubChem BioAssay AID1918932 (Molecular Pharmacology Branch, DTP, NCI, 2023).

System: 171881-019-R-J1-PDC complex spheroid viability
Experiment: Anticancer human tumor 171881-019-R-J1-PDC patient-derived invasive breast carcinoma cell line growth inhibition
Conditions: for IC50: curve of first compound; for viability, T/C: stronger effect = lower value
Description: Multicellular complex tumor spheroid response to LSD1 Inhibitor Iadademstat in combination with a variety of drugs and investigational agents in selected tumor cell lines
The current study was undertaken to assess response to LSD1 inhibitors in combination with standard-of-care drugs and investigational agents in solid tumor complex spheroid models as well as in the K-562 leukemia. Complex spheroids include a stromal component modeled by human endothelial cells (HUVEC) and fibroblasts modeled by human mesenchymal stem cells (MSCs). The concentration ranges selected for each drug and investigational agent were based upon clinically achievable concentrations if the clinical Cmax of the agent was known.
Compounds. The drugs and investigational agents used in this study are listed on Table 1. All of the agents used, including staurosporine (NSC755774) and gemcitabine (NSC613327), were obtained from the Developmental Therapeutics Program, NCI. FDA-approved anticancer drugs are available from the NCI at http://dtp.nci.nih.gov/branches/dscb/oncology_drugset_explanation.html. Drugs and investigational agents were >95% pure by proton nuclear magnetic resonance (NMR) and liquid chromatography/mass spectrometry (LC/MS). Stock solutions were prepared at 400x in DMSO, stored at -70 degrees C, and diluted in fresh medium prior to their use. The final concentration of DMSO in cell culture wells never exceeded 0.25% (v/v). The FDA-approved anticancer drug set is available from the Developmental Therapeutics Program at https://dtp.cancer.gov/organization/dscb/obtaining/available_plates.htm. All drugs and investigational agents were tested over a range starting from a high concentration at or near the clinical Cmax and decreasing in half-log increments. If the clinical Cmax for an agent had not been determined, the highest concentration tested was 10 microM.
Cell Lines. The patient-derived cancer cell (PDC) lines: 292921-168-R-J2-PDC, K24384-001-R-PDC, and 521955-158-R2-J5-PDC pancreatic carcinomas, 556581-035-R-J1 ovarian carcinoma, 324938-238-R-J1-PDC, 855422-203-R-J1-PDC and 883617-216-R-J1-PDC urothelial bladder carcinomas, 743489-274-T-PDC renal cell carcinoma, 138582-R-J1 Merkel cell tumor, K60290-347-R-J1 and K57222-313-R-J1-PDC glioblastomas, 653999-131-R-J2-PDC, LG0703-F948-PDC, and 349418-098-R-PDC non-small cell lung carcinomas, 885512-296-R-J2-PDC, 171881-019-R-J1-PDC breast carcinomas and 186277-243-T-J2-PDC and 233499-124-R-J2-PDC colon carcinomas were obtained from the NCI Patient-Derived Models Repository (PDMR, https://pdmr.cancer.gov). The established cell lines NCI/ADR-RES (RRID:CVCL_14520 and OVCAR-5 (RRID:CVCL_1628) ovarian carcinomas, 786-O (RRID:CVCL_1051) and A498 (RRID:CVCL_A498) renal cell carcinoma, NCI-H211 (ATCC, cat. CRL-5824; RRID:CVCL_1529), NCI-H196 (ATCC, cat. CRL-5823, RRID:CVCL_1509), SW 1271 (ATCC, cat. CRL-2177, RRID:CVCL_1716) and NCI-H1876 (ATCC, cat. CRL-5902, RRID:CVCL_1503) small cell lung carcinomas, MDA-MB-231 (RRID:CVCL_0062) and MDA-MB-468 (RRID:CVCL_0419)breast carcinomas (10-12). Pooled donor human umbilical vein endothelial cells (HUVEC, Lonza, cat. CC-2519) and human mesenchymal stem cells (hMSC, Lonza, cat. PT-2501) were purchased from Lonza (Walkersville, MD).
Cell Culture. All cells were maintained in an incubator at 37 degrees C and 5% CO2 with 95% humidity. The PDC lines were cultured according to standard operating procedures established by the NCI PDMR (https://pdmr.cancer.gov). Briefly all PDCs were thawed and cultured in Matrigel-coated flasks prepared with a working solution of 1X Ham's F-12 nutrient mix, without supplementation (Invitrogen, Waltham, MA, cat. 11765054), 100 U/mL penicillin-streptomycin (Invitrogen, cat. 15140122), and 2.5% Matrigel (Corning Inc., Corning, NY, cat. 354248) for the first three passages. […]

[1] = second compound 0.1 µM, first compound 0.00949 µM
[2] = second compound 0.1 µM, first compound 0.03 µM
[3] = second compound 0.1 µM, first compound 0.0949 µM
[4] = second compound 0.1 µM, first compound 0.3 µM
[5] = second compound 0.1 µM, first compound 0.949 µM
[6] = second compound 0.1 µM, first compound 3 µM
[7] = second compound 0.316 µM, first compound 0.00949 µM
[8] = second compound 0.316 µM, first compound 0.03 µM
[9] = second compound 0.316 µM, first compound 0.0949 µM
[10] = second compound 0.316 µM, first compound 0.3 µM
[11] = second compound 0.316 µM, first compound 0.949 µM
[12] = second compound 0.316 µM, first compound 3 µM
[13] = second compound 1 µM, first compound 0.00949 µM
[14] = second compound 1 µM, first compound 0.03 µM
[15] = second compound 1 µM, first compound 0.0949 µM
[16] = second compound 1 µM, first compound 0.3 µM
[17] = second compound 1 µM, first compound 0.949 µM
[18] = second compound 1 µM, first compound 3 µM
[19] = second compound 3.16 µM, first compound 0.00949 µM
[20] = second compound 3.16 µM, first compound 0.03 µM
[21] = second compound 3.16 µM, first compound 0.0949 µM
[22] = second compound 3.16 µM, first compound 0.3 µM
[23] = second compound 3.16 µM, first compound 0.949 µM
[24] = second compound 3.16 µM, first compound 3 µM
[25] = second compound 10 µM, first compound 0.00949 µM
[26] = second compound 10 µM, first compound 0.03 µM
[27] = second compound 10 µM, first compound 0.0949 µM
[28] = second compound 10 µM, first compound 0.3 µM
[29] = second compound 10 µM, first compound 0.949 µM
[30] = second compound 10 µM, first compound 3 µM
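Also: spheroids exposed to agents for 7 days after 3 days growth.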

SMILES | IC50 (second compound 0.1 µM) | IC50 (second compound 0.316 µM) | IC50 (second compound 1 µM) | IC50 (second compound 3.16 µM) | IC50 (second compound 10 µM) | viability, T/C [1] | viability, T/C [2] | viability, T/C [3] | viability, T/C [4] | viability, T/C [5] | viability, T/C [6] | viability, T/C [7] | viability, T/C [8] | viability, T/C [9] | viability, T/C [10] | viability, T/C [11] | viability, T/C [12] | viability, T/C [13] | viability, T/C [14] | viability, T/C [15] | other results
Nc1ccccc1NC(=O)c1ccc(CNC(=O)OCc2cccnc2)cc1 + NC1CC1c1ccc(-c2cccc(O)c2)cc1 | 525 nM | 530 nM | 520 nM | 481 nM | 441 nM | 101% | 96.2% | 107% | 89.4% | 8.16% | 0.69% | 104% | 102% | 109% | 90.8% | 8.21% | 0.84% | 101% | 103% | 107% | viability, T/C [16]: 88.6%; viability, T/C [17]: 7.91%; viability, T/C [18]: 0.77%; viability, T/C [19]: 100%; viability, T/C [20]: 102%; viability, T/C [21]: 90.8%; viability, T/C [22]: 80.6%; viability, T/C [23]: 6.04%; viability, T/C [24]: 0.79%; viability, T/C [25]: 88%; viability, T/C [26]: 82.6%; viability, T/C [27]: 82.3%; viability, T/C [28]: 70.9%; viability, T/C [29]: 8.68%; viability, T/C [30]: 0.61%
O=C(C=Cc1cccc(S(=O)(=O)Nc2ccccc2)c1)NO + NC1CC1c1ccc(-c2cccc(O)c2)cc1 | 382 nM | 404 nM | 419 nM | 389 nM | 309 nM | 99.8% | 104% | 102% | 63.1% | 1.03% | 0.11% | 100% | 98.5% | 100% | 67% | 1.15% | 0.13% | 104% | 103% | 103% | viability, T/C [16]: 69.9%; viability, T/C [17]: 1.32%; viability, T/C [18]: 0.23%; viability, T/C [19]: 92%; viability, T/C [20]: 89.5%; viability, T/C [21]: 97.2%; viability, T/C [22]: 64.3%; viability, T/C [23]: 1.09%; viability, T/C [24]: 0.11%; viability, T/C [25]: 77%; viability, T/C [26]: 73.5%; viability, T/C [27]: 85.6%; viability, T/C [28]: 51.4%; viability, T/C [29]: 0.76%; viability, T/C [30]: 0.14%
